Experimental data reported in patent publication US12558339B2, “Composition comprising (7S)-(+)-cyclopentyl carbarmic acid, 8,8-dimethyl-2-oxo-6,7-dihydro-2H,8H-pyrano[3,2-g]chromen-7-yl-ester as active ingredient for prevention, alleviation, or treatment of eye disease” (INSPHARMTECH INC., priority 2021, dated 2026).

How the values were obtained:
[1] = system: human endothelial cells (HUVECs); experiment: Cell viability test (CELLTITER-GLO luminescent assay) in HUVECs; type: cell-based; details: various concentrations, 48 hours, FIG. 1A
Procedure: ARPE-19 cells (RID: CVCL 0145) and L-Wnt3a cells (RID: CVCL 0635) were acquired from American Type Culture Collection (ATCC) and cultured in a DMEM medium supplemented with 10% fetal bovine serum (FBS), 120 μg/mL penicillin and 200 μg/mL streptomycin. Human umbilical vein endothelial cells (HUVECs, RID: CVCL 2959) were purchased from CEFO (Cell Engineering for Origin) and cultured using an optimized medium (CEFOgro-HUVEC). Wnt3a-CM (Wnt3a-conditioned medium) was prepared using L-Wnt3a cells that secrete the Wnt-3a protein into the medium. First, the cells were cultured for 4 days and the medium was recovered and replaced with a fresh medium. After culturing for 3 days, the medium was recovered. […]
HUVECs were inoculated into a 96-well plate with a transparent black bottom at 5,000 cells per well, incubated overnight, and then treated with a test substances (compound of Example (1) (CGK012) or decursin of Comparative Example (1)) at various concentrations together with a medium (total volume per well: 100 μL). After 48 hours, cell viability was measured using a CELLTITER-GLO® luminescent cell viability assay kit (Promega, G7572) according to the manufacturer's instructions. […] After mixing in an orbital shaker for 2 minutes for cell lysis, stabilization was induced at room temperature for 10 minutes, and then luminescence was measured. […]

[2] = system: choroidal neovascularization (CNV)-induced rabbit model; experiment: Laser-induced choroidal neovascularization (CNV) rabbit model, fluorescein angiography, retinal fluorescence intensity; type: in vivo, Chinchilla rabbit; details: for Fluorescence intensity (% of control group): rabbit CNV, instillation 300 μg/eye 1/day, day 7 (G6, G7)
Text: After obtaining 50 male Chinchilla rabbits weighing about 2.5-3.0 kg from DREAMBIO, their health status was checked during a 7-day acclimatization period, and healthy animals were used in the test.
After the acclimatization period, 42 healthy rabbits were selected and a mydriatic agent (MIDRIACIL™ 1% eye drop) was instilled into the right eye. After anesthetizing the animals, laser (ELITE, LUMENIS, USA) was irradiated under the condition of 532 nm, power 150 mW and duration 0.1 sec, and 6 spots were made in about 6 o'clock direction around the optic nerve.
After dividing the test animals into a total of 7 groups, G1 to G7, administration of the test substance was started on the day of the CNV induction using laser with the concentrations described in Table 2. In Table 2, EYLEA™ (Aflibercept) was used as a positive control substance. For intravitreal injection, 40 μL of the positive control substance (EYLEA™) was injected intravitreally into the right eye of the animal in the anesthetized state using a syringe equipped with a 31-gauge needle on the day of the CNV induction. For instillation, after the animal was taken out of the cage and corrected naturally by an assistant, 200 μL of the test substance was instilled into the center of the cornea of the right eye by using a pipette. In the case of “a)”, the instillation was divided into 4 times and each administration was spaced by 5 minutes.
Before the administration of the test substance (0) and on 7, 14, 28, 42 and 56 days after the administration, a mydriatic agent (MIDRIACIL™ 1% eye drop) was instilled into the right of the animal. Then, after anesthetizing the animal and injecting about 1 mL of a 2% fluorescein sodium salt solution via the ear vein, images were taken within about 2 minutes using a fundus camera (TRC-50IX, Topcon, Japan).
Retinal CNV and drug efficacy were confirmed using the retinal fluorescein fundus images. The fluorescein intensity of the irradiation area was analyzed using the ImageJ software (NIH, Bethesda, MD).
For the results of this test, the significance between the test groups was tested using parametric one-way ANOVA assuming the normality of the data. When significance was recognized, a post hoc test was performed using Dunnett's multiple comparison test. Statistical analysis was performed using PRISM 7.04 (GraphPad Software Inc., San Diego, CA, USA), and p<0.05 was considered statically significant.
The test substance of the example or the comparative example was dropped onto the eye of a rabbit wherein choroidal neovascularization (CNV) was induced by laser irradiation, for 7 days, 300 μg per each administration. On day 7 after the start of the test substance administration, the eye was imaged with a fundus camera to compare the effect of the test substance on intraocular vascular leakage and the fluorescence intensity of the retina was analyzed. […] Table 3 compares the relative fluorescence intensity (% of control group) of the irradiation area determined by analyzing the retinal fluorescein angiographic images of the control group (G1), the test group (G6) and the comparison group (G7).
For a rabbit wherein choroidal neovascularization (CNV) was induced by laser irradiation, EYLEA™ was intravitreally injected as a positive control, the eye drop of the example was administered by dropping onto the eye or EYLEA™ and the eye drop of the example were co-administered. […]

[3] = system: ICR mice; experiment: Acute toxicity, oral, fatality rate at 24 hours; type: in vivo; details: 2.0 g/kg, n=5
Procedure: This experiment was conducted to investigate the acute (within 24 hours) toxicity of the compound of the present disclosure and determine its fatality rate when consumed in an excess amount in a short period of time. ICR mice were assigned to a control group (n=5) and a test group (n=5). Nothing was administered to the control group and the compound of Example (1) was orally administered to the test group at a concentration of 2.0 g/kg (about 50 times the amount used in general animal experiments).

[4] = system: vascular endothelial growth factor (VEGF) in human retinal pigment epithelial cells (ARPE-19 cells); experiment: Western blotting of VEGF level in ARPE-19 cells; type: cell-based; details: FIG. 1B
Procedure: ARPE-19 cells (RID: CVCL 0145) and L-Wnt3a cells (RID: CVCL 0635) were acquired from American Type Culture Collection (ATCC) and cultured in a DMEM medium supplemented with 10% fetal bovine serum (FBS), 120 μg/mL penicillin and 200 μg/mL streptomycin. Human umbilical vein endothelial cells (HUVECs, RID: CVCL 2959) were purchased from CEFO (Cell Engineering for Origin) and cultured using an optimized medium (CEFOgro-HUVEC). Wnt3a-CM (Wnt3a-conditioned medium) was prepared using L-Wnt3a cells that secrete the Wnt-3a protein into the medium. First, the cells were cultured for 4 days and the medium was recovered and replaced with a fresh medium. After culturing for 3 days, the medium was recovered. The two media were combined and used after passing through a 0.22-μm filter. All the cells were cultured in a cell incubator under the condition of 37° C. and 5% CO2.
Whole cell proteins were obtained using a RIPA buffer. After treating the cells with an appropriate amount of a RIPA buffer supplemented with 1× protease inhibitor, the cells were reacted on ice while vortexing once every 10 minutes. After centrifuging at 13,000 rpm and at 4° C. for 10 minutes and quantifying the obtained supernatant by BRADFORD™ assay, […] of proteins were separated according to molecular weight through electrophoresis. […]

[5] = system: C57BL/6J mice; experiment: Organ and tissue toxicity (blood GPT, BUN; liver and kidney histology); type: in vivo
Procedure: In order to investigate the effect on the organs (tissues) of C57BL/6J mice, blood was taken from the animals of a test group to which the compound of Example (1) was administered and a control group to which only a solvent was administered 8 weeks after the administration, and blood levels of GPT (glutamate-pyruvate transferase) and BUN (blood urea nitrogen) were measured using SELECT™ E (Vital Scientific NV, Netherlands). […] In addition, the liver and kidney were taken from each animal and subjected to histological observation under an optical microscope through a conventional tissue section preparation process.

[6] = G5: CGK012 administered alone, FIG. 6B, 6C

Molecule	cell viability of human endothelial cells (HUVECs) [1]	difference of retinal fluorescence intensity from the positive control EYLEA administration group (G2) [2, 6]	level of retinal fluorescence intensity as compared to the induced control group (G1) [2, 6]	relative fluorescence intensity (% of control group) ([2]; G5: CGK012 instillation 300 μg/eye 2/day, Day 7)	relative fluorescence intensity (% of control group) ([2]; G5: CGK012 instillation 300 μg/eye 2/day, Day 14)	relative fluorescence intensity (% of control group) ([2]; G5: CGK012 instillation 300 μg/eye 2/day, Day 28)	relative fluorescence intensity (% of control group) ([2]; G5: CGK012 instillation 300 μg/eye 2/day, Day 42)	relative fluorescence intensity (% of control group) ([2]; G5: CGK012 instillation 300 μg/eye 2/day, Day 56)	duration of the effect of inhibiting choroidal neovascularization ([2]; G5: single administration of CGK012 (eye drop, without EYLEA)) [weeks]	Fluorescence intensity (% of control group) [2]	fatality rate 24 hours after the administration [3]	level of VEGF in ARPE-19 cells [4]	blood level of BUN (blood urea nitrogen) vs control group ([5]; 8 weeks after the administration, kidney toxicity)	blood level of GPT (glutamate-pyruvate transferase) vs control group ([5]; 8 weeks after the administration, liver toxicity)	histological observation of liver and kidney ([5]; optical microscope)	relative fluorescence intensity (% of control group) ([2]; G2: EYLEA intravitreal 1600 μg/eye 1/3 weeks, Day 7)	relative fluorescence intensity (% of control group) ([2]; G2: EYLEA intravitreal 1600 μg/eye 1/3 weeks, Day 14)	relative fluorescence intensity (% of control group) ([2]; G2: EYLEA intravitreal 1600 μg/eye 1/3 weeks, Day 28)	relative fluorescence intensity (% of control group) ([2]; G2: EYLEA intravitreal 1600 μg/eye 1/3 weeks, Day 42)	relative fluorescence intensity (% of control group) ([2]; G2: EYLEA intravitreal 1600 μg/eye 1/3 weeks, Day 56)
CC1(C)Oc2cc3oc(=O)ccc3cc2C[C@@H]1OC(=O)NC1CCCC1 [CGK012, (7S)-(+)-cyclopentylcarbarmic acid 8,8-dimethyl-2-oxo-6,7-dihydro-2H,8H-pyrano[3,2-g]chromen-7-yl-ester]	significantly inhibited the survival of the HUVECs at high concentrations	no statistically significant difference	significantly low	80.877 ± 8.905 % of control group	79.116 ± 7.972 % of control group	79.152 ± 6.642 % of control group	79.137 ± 6.355 % of control group	81.041 ± 10.391 % of control group	8	75.52 ± 3.93 % of control group	all the animals of the control group and the test group survived	remarkably decreased VEGF	no significant difference was observed	no significant difference was observed	No unusual abnormality was observed					
Aflibercept [EYLEA™, reference compound]																78.474 ± 8.452 % of control group	70.022 ± 7.008 % of control group	69.348 ± 5.013 % of control group	74.154 ± 9.129 % of control group	84.087 ± 9.079 % of control group
CC(C)=CC(=O)O[C@H]1Cc2cc3ccc(=O)oc3cc2OC1(C)C [decursin, reference compound]	did not significantly induce the apoptosis of the HUVECs even at high concentrations									95.66 ± 10.80 % of control group		did not show significant effect on the level of VEGF								
